Read-outs that look alike come from different tables or passages of the source.

For assay [1], the target named is rat mGlu2 receptor (Rattus norvegicus (Rat), UniProt P31421). Put plainly: mGlu2 in vitro GIRK thallium flux assay. The format is cell-based. The note with it: NAM, EC80 glutamate, HEK-293 GIRK cells. On the procedure: (§1) All cell culture reagents were purchased from Invitrogen Corp. (Carlsbad, Calif.) unless otherwise noted. Compound activity at the group II (mGlu2 and mGlu3) mGlus was assessed using thallium flux through GIRK channels. Briefly, cells were plated into 384-well, black-walled, clear-bottomed poly-D-lysine-coated plates at a density of 15,000 cells/20 μL/well in DMEM containing 10% dialyzed FBS, 20 mM HEPES, and 100 units/mL penicillin/streptomycin (assay media). Plated cells were incubated overnight at 37° C. in the presence of 5% CO2. […] Cells were incubated for 1 h at room temperature, and the dye exchanged to assay buffer using an ELX405, leaving 20 μL/well. Test compounds were diluted to 2 times their final desired concentration in assay buffer (0.3% DMSO final concentration). […] Cell plates and compound plates were loaded onto a kinetic imaging plate reader (FDSS 6000 or 7000; Hamamatsu Corporation, Bridgewater, N.J.). Appropriate baseline readings were taken (10 images at 1 Hz; excitation, 470±20 nm; emission, 540±30 nm) and test compounds were added in a 20 μL volume and incubated for either 2.5 min or 60 min as indicated before the addition of 10 μL of thallium buffer with or without agonist. After the addition of agonist, data were collected for approximately an additional 2.5 min. Data were analyzed using Excel (Microsoft Corp, Redmond, Wash.). The slope of the fluorescence increase beginning 5 s after thallium/agonist addition and ending 15 s after thallium/agonist addition was calculated, corrected to vehicle and maximal agonist control slope values, and plotted in using either XLfit (ID Business Solutions Ltd) or Prism software (GraphPad Software, San Diego, Calif.) to generate concentration-response curves. Potencies were calculated from fits using a four-point parameter logistic equation. For concentration-response curve experiments, compounds were serially diluted 1:3 into 10 point concentration response curves and were transferred to daughter plates using an Echo acoustic plate reformatter (Labcyte, Sunnyvale, Calif.). Test compounds were applied and followed by EC80 concentrations of glutamate.
Sequence of rat mGlu2 receptor (P31421 19-872): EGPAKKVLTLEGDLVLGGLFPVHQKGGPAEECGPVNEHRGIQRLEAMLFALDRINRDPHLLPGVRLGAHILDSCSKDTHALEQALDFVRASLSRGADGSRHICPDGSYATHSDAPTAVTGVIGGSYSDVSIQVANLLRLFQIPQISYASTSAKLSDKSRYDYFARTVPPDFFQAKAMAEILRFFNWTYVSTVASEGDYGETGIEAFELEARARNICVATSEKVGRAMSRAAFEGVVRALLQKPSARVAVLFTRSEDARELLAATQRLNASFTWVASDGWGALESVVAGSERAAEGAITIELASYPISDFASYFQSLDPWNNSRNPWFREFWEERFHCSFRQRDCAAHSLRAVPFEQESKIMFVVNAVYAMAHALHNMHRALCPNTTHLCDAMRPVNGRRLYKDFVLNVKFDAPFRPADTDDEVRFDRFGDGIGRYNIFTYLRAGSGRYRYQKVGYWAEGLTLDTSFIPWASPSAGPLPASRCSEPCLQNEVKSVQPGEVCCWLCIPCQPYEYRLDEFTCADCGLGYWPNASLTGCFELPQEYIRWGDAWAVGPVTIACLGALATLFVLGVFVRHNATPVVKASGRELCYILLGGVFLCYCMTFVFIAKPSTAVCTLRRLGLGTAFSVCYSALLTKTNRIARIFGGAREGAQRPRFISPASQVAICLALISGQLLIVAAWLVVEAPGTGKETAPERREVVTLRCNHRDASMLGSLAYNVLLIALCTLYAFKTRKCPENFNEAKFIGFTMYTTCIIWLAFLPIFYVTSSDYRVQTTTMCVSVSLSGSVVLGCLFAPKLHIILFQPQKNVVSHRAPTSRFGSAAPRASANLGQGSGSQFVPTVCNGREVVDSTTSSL

Assay [2] addresses rat mGlu3 receptor (Rattus norvegicus (Rat), UniProt P31422). In words: mGlu3 in vitro GIRK thallium flux assay. The format is cell-based. As to conditions: NAM; 2.5 min compound incubation; EC80 glutamate; HEK-293 GIRK cells. Here is the method: as §1
Where [3] appears, read: 2.5 min compound incubation, read-out: mGlu2 EC50 (μM) (2.5 min).
[4] abbreviates: mGlu2 EC50 (μM) (60 min), 60 min compound incubation.
[5] abbreviates: read-out: mGlu2 EC50 (μM) (60 min), 60 min compound incubation.

Sequence of rat mGlu3 receptor (P31422 23-879): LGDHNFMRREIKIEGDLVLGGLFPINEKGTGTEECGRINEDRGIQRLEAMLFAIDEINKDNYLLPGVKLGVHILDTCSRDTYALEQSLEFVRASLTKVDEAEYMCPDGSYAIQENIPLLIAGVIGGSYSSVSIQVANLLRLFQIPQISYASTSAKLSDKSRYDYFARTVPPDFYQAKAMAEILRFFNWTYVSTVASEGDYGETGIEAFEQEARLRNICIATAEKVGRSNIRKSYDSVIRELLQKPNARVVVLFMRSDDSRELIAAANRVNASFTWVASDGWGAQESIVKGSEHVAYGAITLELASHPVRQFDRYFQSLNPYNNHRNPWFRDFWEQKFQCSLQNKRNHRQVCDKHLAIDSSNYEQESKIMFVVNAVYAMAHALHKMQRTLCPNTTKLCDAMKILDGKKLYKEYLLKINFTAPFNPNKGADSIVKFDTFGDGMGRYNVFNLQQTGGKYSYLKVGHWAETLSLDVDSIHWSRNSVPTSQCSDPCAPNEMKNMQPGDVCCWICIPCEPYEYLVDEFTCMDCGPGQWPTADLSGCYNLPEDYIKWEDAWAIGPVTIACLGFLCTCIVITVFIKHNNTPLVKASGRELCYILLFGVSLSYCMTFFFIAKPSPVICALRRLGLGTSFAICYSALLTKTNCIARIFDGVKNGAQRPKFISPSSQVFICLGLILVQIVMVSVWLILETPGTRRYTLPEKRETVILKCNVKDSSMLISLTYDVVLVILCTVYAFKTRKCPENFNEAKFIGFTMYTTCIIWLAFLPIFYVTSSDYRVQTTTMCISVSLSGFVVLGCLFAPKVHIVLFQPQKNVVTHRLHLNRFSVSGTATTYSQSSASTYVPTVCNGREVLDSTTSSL

A word on the EC50: it is the midpoint of the concentration-response curve. Turning to `O=C(O)c1cc(-c2cccc(-c3nc(-c4ccc(C(F)(F)F)cc4)cc(C(F)(F)F)n3)c2)ccc1F` [Example 108, 4-Fluoro-3′-(4-(trifluoromethyl)-6-(4-(trifluoromethyl)phenyl)pyrimidin-2-yl)biphenyl-3-carboxylic Acid], the EC50 in assay [1] (setting [3]) was found to be 1.5 µM; in assay [2] it was 1.49 µM. Take `N#Cc1cccc(C2CC(=O)Nc3cc(C(=O)O)ccc3N2)c1` (racemic) [Example 161, 2-(3-Cyanophenyl)-4-oxo-2,3,4,5-tetrahydro-1H-benzo[b][1,4]diazepine-7-carboxylic Acid]: the EC50 in assay [1] (setting [4]) is more than 30 µM. With `COc1ccc(-c2nc(-c3cccc(-c4cccc(C(=O)O)c4)c3)cs2)cc1OC` [Example 29, 3-{3-[2-(3,4-Dimethoxyphenyl)-1,3-thiazol-4-yl]phenyl}benzoic acid], the EC50 in assay [1] (setting [3]) was 2.58 µM; in assay [1] (setting [4]), 1.1 µM; in assay [2], 4.02 µM. Turning to `O=C(O)c1cc(-c2ccc(-c3nc(-c4ccc(C(F)(F)F)nc4)cc(C(F)(F)F)n3)cc2)ccc1F` [Example 82, 4-Fluoro-4′-(4-(trifluoromethyl)-6-(6-(trifluoromethyl)pyridin-3-yl)pyrimidin-2-yl)biphenyl-3-carboxylic Acid], the results for the concentration for a half-maximal effect (EC50) in assay [1] (setting [3]), in assay [1] (setting [5]) and in assay [2] were 1.42 µM, 0.49 µM and 1.32 µM, respectively. For `O=C1CC(c2ccnc(Br)c2)=Nc2ccc(-c3ccc(C(F)(F)F)cc3C(F)(F)F)cc2N1` [Example 194, 8-(2,4-Bis(trifluoromethyl)phenyl)-4-(2-bromopyridin-4-yl)-1,3-dihydro-2H-benzo[b][1,4]diazepin-2-one], in that order: more than 10 µM, 3.47 µM and more than 10 µM.

In the case of `O=c1[nH]c(-c2cc(-c3cccc(-c4nc(-c5ccoc5)cc(C(F)(F)F)n4)c3)ccc2F)ns1` [Example 135, 3-(4-Fluoro-3′-(4-(furan-3-yl)-6-(trifluoromethyl)pyrimidin-2-yl)-[1,1′-biphenyl]-3-yl)-1,2,4-thiadiazol-5(4H)-one], the half-maximal effective concentration (EC50) in assay [1] (setting [5]) is more than 10 µM.

As for `Fc1ccc(-c2cccc(-c3nc(-c4ccc(C(F)(F)F)nc4)cc(C(F)(F)F)n3)c2)cc1-c1nn[nH]n1` [Example 124, 2-(4′-Fluoro-3′-(2H-tetrazol-5-yl)-[1,1′-biphenyl]-3-yl)-4-(trifluoromethyl)-6-(6-(trifluoromethyl)pyridin-3-yl)pyrimidine], in assay [1] (setting [5]), the EC50 amounted to 1.29 µM.

For the compound `N#Cc1cc(C2CC(=O)Nc3cc(C(=O)O)ccc3N2)ccn1` (racemic) [Example 160, 2-(2-Cyanopyridin-4-yl)-4-oxo-2,3,4,5-tetrahydro-1H-benzo[b][1,4]diazepine-7-carboxylic Acid], the EC50 in assay [1] (setting [4]) was more than 30 µM. Consider `C#Cc1cccc(C2CC(=O)Nc3cc(C(F)(F)F)c(C)cc3N2)c1` (single isomer, unassigned) [Example 175B, 4-(3-Ethynylphenyl)-7-methyl-8-(trifluoromethyl)-4,5-dihydro-1H-benzo[b][1,4]diazepin-2(3H)-one], for which the EC50 in assay [1] (setting [4]) is 4.47 µM. For the compound `Cc1cccc(C#Cc2cccc(C3=Nc4cc(C)c(C(F)(F)F)cc4NC(=O)C3)c2)n1` [Example 138, 7-Methyl-4-(3-((6-methylpyridin-2-yl)ethynyl)phenyl)-8-(trifluoromethyl)-1H-benzo[b][1,4]diazepin-2 (3H)-one], the EC50 in assay [1] (setting [5]) is more than 10 µM. In the case of `Cc1cc2c(cc1C(F)(F)F)NC(=O)CC(c1cccc(Oc3cc(F)cc(F)c3)c1)N2` (single isomer, unassigned) [Example 174B, 4-(3-(3,5-Difluorophenoxy)phenyl)-7-methyl-8-(trifluoromethyl)-4,5-dihydro-1H-benzo[b][1,4]diazepin-2(3H)-one], the EC50 in assay [1] (setting [5]) was more than 10 µM. On the same count and under the same terms, then `Cc1cc2c(cc1C(F)(F)F)NC(=O)CC(c1cccc(Nc3ccccn3)c1)=N2` [Example 141, 7-Methyl-4-(3-(pyridin-2-ylamino)phenyl)-8-(trifluoromethyl)-1H-benzo[b][1,4]diazepin-2(3H)-one], with more than 10 µM. For `Cc1cc2c(cc1C(F)(F)F)NC(=O)CC(c1cccc(-n3ccc4ccccc43)c1)N2` (racemic) [Example 167B, 4-(3-(1H-Indol-1-yl)phenyl)-7-methyl-8-(trifluoromethyl)-4,5-dihydro-1H-benzo[b][1,4]diazepin-2(3H)-one], the EC50 in assay [1] (setting [4]) is more than 10 µM. Same read-out and setting: then `C#CCNC(=O)c1cccc(C2CC(=O)Nc3cc(C(F)(F)F)c(C)cc3N2)c1` (racemic) [Example 170B, 3-(8-Methyl-4-oxo-7-(trifluoromethyl)-2,3,4,5-tetrahydro-1H-benzo[b][1,4]diazepin-2-yl)-N-(prop-2-yn-1-yl)benzamide], with 3.68 µM; and `Cc1cc2c(cc1C(F)(F)F)NC(=O)CC(c1cccc(CCC(=O)O)c1)N2` (single isomer, unassigned) [Example 155B, 3-(3-(8-methyl-4-oxo-7-(trifluoromethyl)-2,3,4,5-tetrahydro-1H-benzo[b][1,4]diazepin-2-yl)phenyl)propanoic acid], with more than 10 µM. Regarding `O=C1CC(c2cccc(Br)c2)=Nc2ccc(NC(=O)OCc3ccccc3)cc2N1` [Example 157, Benzyl (4-(3-bromophenyl)-2-oxo-2,3-dihydro-1H-benzo[b][1,4]diazepin-8-yl)carbamate], in assay [1] (setting [5]), the EC50 is more than 10 µM. For `O=C1CC(c2cccc(Br)c2)Nc2ccc(NC(=O)OCc3ccccc3)cc2N1` (racemic) [Example 158, Benzyl (2-(3-bromophenyl)-4-oxo-2,3,4,5-tetrahydro-1H-benzo[b][1,4]diazepin-7-yl)carbamate], in assay [1] (setting [4]), the EC50 was more than 10 µM. As to `CCOC(=O)/C=C/c1cccc(C2=Nc3cc(C)c(C(F)(F)F)cc3NC(=O)C2)c1` [Example 152, Ethyl 3-(3-((E)-7-methyl-2-oxo-8-(trifluoromethyl)-2,3-dihydro-1H-benzo[b][1,4]diazepin-4-yl)phenyl)acrylate], the EC50 in assay [1] (setting [5]) is 3.26 µM. `Cc1cc2c(cc1C(F)(F)F)NC(=O)CC(c1cccc(OCc3ccccc3)c1)N2` (racemic) [Example 178, 4-(3-(Benzyloxy)phenyl)-7-methyl-8-(trifluoromethyl)-4,5-dihydro-1H-benzo[b][1,4]diazepin-2(3H)-one]: in assay [1] (setting [4]), the EC50 was more than 10 µM.

Regarding `O=c1[nH]c(-c2cc(-c3cccc(-c4nc(-c5ccoc5)cc(C(F)(F)F)n4)c3)ccc2F)no1` [Example 133, 3-(4-Fluoro-3′-(4-(furan-3-yl)-6-(trifluoromethyl)pyrimidin-2-yl)-[1,1′-biphenyl]-3-yl)-1,2,4-oxadiazol-5(4H)-one], the EC50 in assay [1] (setting [5]) was found to be 0.73 µM.

As for `Cc1cc2c(cc1C(F)(F)F)NC(=O)CC(c1cccc(C(N)=O)c1)N2` (single isomer, unassigned) [Example 168A, 3-(8-Methyl-4-oxo-7-(trifluoromethyl)-2,3,4,5-tetrahydro-1H-benzo[b][1,4]diazepin-2-yl)benzamide], the EC50 in assay [1] (setting [4]) is more than 10 µM. On the same count and under the same terms, the value for `COC(=O)c1cccc(C2CC(=O)Nc3cc(C(F)(F)F)c(C)cc3N2)c1` (racemic) [Example 151, (±)-Methyl 3-(8-methyl-4-oxo-7-(trifluoromethyl)-2,3,4,5-tetrahydro-1H-benzo[b][1,4]diazepin-2-yl)benzoate] was more than 10 µM.

Take `Fc1ccc(-c2cccc(-c3nc(-c4ccoc4)cc(C(F)(F)F)n3)c2)cc1-c1noc(=S)[nH]1` [Example 134, 3-(4-Fluoro-3′-(4-(furan-3-yl)-6-(trifluoromethyl)pyrimidin-2-yl)-[1,1′-biphenyl]-3-yl)-1,2,4-oxadiazole-5(4H)-thione]: in assay [1] (setting [5]), the EC50 is more than 10 µM.

(Values after patent US9969726B2, “Metabotropic glutamate receptor negative allosteric modulators (NAMS) and uses thereof” (Sanford-Burnham Medical Research Institute, priority 2014, dated 2018).)
